Laboratory results published in ChEMBL document CHEMBL5244273, “Tuberculosis: An Overview of the Immunogenic Response, Disease Progression, and Medicinal Chemistry Efforts in the Last Decade toward the Development of Potential Drugs for Extensively Drug-Resistant Tuberculosis Strains” (J Med Chem, 2021).
≈ marks a conversion by molar mass, not a printed value.

What was measured:
[1] = system: Mycobacterium tuberculosis; experiment: Antimycobacterial activity against Mycobacterium tuberculosis H37Rv; format: functional
[2] = Cytotoxicity against Chinese hamster CHO-K1 cells assessed as inhibition of cell growth; format: toxicity, cell-based, Cricetulus griseus
[3] = Selectivity index, ratio of IC50 for cytotoxicity against Chinese hamster CHO-K1 cells to MIC for antimycobacterial activity against Mycobacterium tuberculosis H37Rv; format: toxicity, cell-based; details: read-out: Selectivity Index
[4] = system: Mycobacterium tuberculosis; experiment: Antitubercular activity against Mycobacterium tuberculosis H37Rv by resazurin microtitre assay; format: functional
[5] = Cytotoxicity against HEK293T cells assessed as reduction in cell viability; format: toxicity, cell-based, HEK-293T; details: human
[6] = Selectivity index, ratio of GI50 for cytotoxicity against human MCF7 cells to MIC for antitubercular activity against active stage of Mycobacterium tuberculosis H37Ra; format: toxicity, cell-based; details: read-out: Selectivity Index
[7] = Selectivity index, ratio of GI50 for cytotoxicity against HUVEC cells to MIC for antitubercular activity against dormant stage of Mycobacterium tuberculosis H37Ra; format: toxicity, cell-based; details: human, read-out: Selectivity Index
[8] = Selectivity index, ratio of GI50 for cytotoxicity against human MCF7 cells to MIC for antitubercular activity against dormant stage of Mycobacterium tuberculosis H37Ra; format: toxicity, cell-based; details: read-out: Selectivity Index
[9] = Selectivity index, ratio of GI50 for cytotoxicity against HUVEC cells to MIC for antitubercular activity against active stage of Mycobacterium tuberculosis H37Ra; format: toxicity, cell-based; details: human, read-out: Selectivity Index
HeLa = experiment: Cytotoxicity against human HeLa cells assessed as cell growth inhibition; format: functional
[10] = system: Mycobacterium tuberculosis; experiment: Antitubercular activity against active stage of Mycobacterium tuberculosis H37Ra; format: functional
[11] = Selectivity index, ratio of GI50 for cytotoxicity against human HeLa cells to MIC for antitubercular activity against active stage of Mycobacterium tuberculosis H37Ra; format: toxicity, cell-based; details: read-out: Selectivity Index
MCF7 = experiment: Cytotoxicity against human MCF7 cells assessed as cell growth inhibition; format: functional
[12] = Cytotoxicity against HUVEC cells assessed as cell growth inhibition; format: toxicity, cell-based; details: human
[13] = system: Mycobacterium tuberculosis; experiment: Antitubercular activity against dormant stage of Mycobacterium tuberculosis H37Ra; format: functional
[14] = Selectivity index, ratio of GI50 for cytotoxicity against human HeLa cells to MIC for antitubercular activity against dormant stage of Mycobacterium tuberculosis H37Ra; format: toxicity, cell-based; details: read-out: Selectivity Index

Molecule `S=c1[nH]nc(-c2ccccc2)o1` has an MIC [1] of 2.2 µg/mL (≈ 12.3 µM), an IC50 [2] of 33.3 µg/mL (≈ 187 µM) and a selectivity ratio [3] of 15.1.
`CCN(CC)CCOc1c(C(=O)OC)c2c3c(oc2c2ccccc12)C(=O)c1ccccc1C3=O` showed an MIC50 [4] of 0.19 µg/mL (≈ 0.403 µM).
In the case of `Oc1ccc(-c2nnc(S)o2)cc1`, the MIC [1] is reported as 0.6 µg/mL (≈ 3.09 µM) and the selectivity ratio [3] is reported as 39.6.
Molecule `Cc1nc(C)c(-c2nnc(S)o2)s1` has an MIC [1] of 1.3 µg/mL (≈ 6.1 µM) and an IC50 [2] of 21.7 µg/mL (≈ 102 µM).
`CC(=O)N1/C(=C/c2ccc(NC(C)C)cc2)C(=O)c2ccccc21` showed an MIC90 [1] of over 20 µM, an MIC99 [1] of over 20 µM and a CC50 [5] of 19 µM.
For `CC(=O)N1/C(=C/c2cccc(-c3cnc4ccccc4c3)c2)C(=O)c2ccccc21`, the MIC90 [1] was 2.65 µM (≈ 1.03 µg/mL), the MIC99 [1] was 3.13 µM (≈ 1.22 µg/mL) and the CC50 [5] was 14 µM.
`O=C(OCc1ccccc1)c1ccsc1NC(=O)[C@@H]1CCCN1` showed a selectivity ratio [6] of over 11.8, a selectivity ratio [7] of over 66.5 and a selectivity ratio [8] of over 66.5. It also gave a selectivity ratio [9] of over 11.8, a GI50 (HeLa) of over 250 µg/mL and an MIC [10] of 21.1 µg/mL (≈ 63.9 µM). It also gave a selectivity ratio [11] of over 11.8, a GI50 (MCF7) of over 250 µg/mL and a GI50 [12] of over 250 µg/mL. The MIC [13] was 3.76 µg/mL (≈ 11.4 µM) and the selectivity ratio [14] was over 66.5.
`O=C(OCC(F)(F)F)c1ccsc1NC(=O)[C@@H]1CCCN1` gave a selectivity ratio [6] of 10.9, a selectivity ratio [7] of over 231 and a selectivity ratio [8] of 83. The selectivity ratio [9] was over 30.4, the GI50 (HeLa) was 109 µg/mL (≈ 339 µM) and the MIC [10] was 8.23 µg/mL (≈ 25.5 µM). For the same molecule, the selectivity ratio [11] was 13.3, the GI50 (MCF7) was 89.7 µg/mL (≈ 278 µM) and the GI50 [12] was over 250 µg/mL. It also gave an MIC [13] of 1.08 µg/mL (≈ 3.35 µM) and a selectivity ratio [14] of 101.
`C=CCOC(=O)c1ccsc1NC(=O)[C@@H]1CCCN1` gave a selectivity ratio [6] of 4.16, a selectivity ratio [7] of 73.3 and a selectivity ratio [8] of 47.6. For the same molecule, the selectivity ratio [9] was 6.41, the GI50 (HeLa) was 94.9 µg/mL (≈ 338 µM) and the MIC [10] was 23.2 µg/mL (≈ 82.8 µM). The selectivity ratio [11] was 4.08, the GI50 (MCF7) was 96.6 µg/mL (≈ 345 µM) and the GI50 [12] was 149 µg/mL (≈ 531 µM). For the same molecule, the MIC [13] was 2.03 µg/mL (≈ 7.24 µM) and the selectivity ratio [14] was 46.7.
In the case of `CC(=O)N1/C(=C/c2cccc(-c3ccc(Cl)cc3)c2)C(=O)c2ccccc21`, the MIC90 [1] is reported as 6.44 µM (≈ 2.41 µg/mL), the MIC99 [1] is reported as 7.85 µM (≈ 2.93 µg/mL) and the CC50 [5] is reported as 4 µM.
With `Sc1nnc(-c2cc3ccccc3[nH]2)o1` the MIC [1] was 1.3 µg/mL (≈ 5.98 µM), the IC50 [2] was 21.6 µg/mL (≈ 99.4 µM) and the selectivity ratio [3] was 16.6.
`Sc1nnc(-c2ccc(I)cc2)o1` showed an MIC [1] of 0.9 µg/mL (≈ 2.96 µM), an IC50 [2] of 46.7 µg/mL (≈ 154 µM) and a selectivity ratio [3] of 51.8.
`O=C(OCC(Cl)(Cl)Cl)c1ccsc1NC(=O)[C@@H]1CCCN1` showed a selectivity ratio [6] of over 12.3, a selectivity ratio [7] of over 15.5 and a selectivity ratio [8] of over 15.5. For the same molecule, the selectivity ratio [9] was over 12.3, the GI50 (HeLa) was over 250 µg/mL and the MIC [10] was 20.4 µg/mL (≈ 54.9 µM). For the same molecule, the selectivity ratio [11] was over 12.3, the GI50 (MCF7) was over 250 µg/mL and the GI50 [12] was over 250 µg/mL. It also gave an MIC [13] of 16.1 µg/mL (≈ 43.3 µM) and a selectivity ratio [14] of over 15.5.
In the case of `O=C1CC[C@@H](COC(=O)c2ccsc2NC(=O)[C@@H]2CCCN2)N1`, the selectivity ratio [6] is reported as 15.6, the selectivity ratio [7] is reported as 13.3 and the selectivity ratio [8] is reported as 22.1. The selectivity ratio [9] was 9.36, the GI50 (HeLa) was 191 µg/mL (≈ 566 µM) and the MIC [10] was 9.46 µg/mL (≈ 28 µM). For the same molecule, the selectivity ratio [11] was 20.2, the GI50 (MCF7) was 148 µg/mL (≈ 437 µM) and the GI50 [12] was 88.6 µg/mL (≈ 263 µM). The MIC [13] was 6.67 µg/mL (≈ 19.8 µM) and the selectivity ratio [14] was 28.6.
Molecule `CC(=O)N1/C(=C/c2ccc(-c3ccc(OC(F)(F)F)cc3)cc2)C(=O)c2ccccc21` has an MIC90 [1] of 1.44 µM (≈ 0.61 µg/mL), an MIC99 [1] of 3.19 µM (≈ 1.35 µg/mL) and a CC50 [5] of 8 µM.
`CC(=O)N1/C(=C/c2ccccc2)C(=O)c2cc(-c3ccccc3)ccc21` showed an MIC90 [1] of 1.24 µM (≈ 0.421 µg/mL), an MIC99 [1] of 1.39 µM (≈ 0.472 µg/mL) and a CC50 [5] of 12 µM.
In the case of `Sc1nnc(-c2cc(Br)co2)o1`, the MIC [1] is reported as 1.5 µg/mL (≈ 6.07 µM), the IC50 [2] is reported as 35.5 µg/mL (≈ 144 µM) and the selectivity ratio [3] is reported as 25.6.
`CC(=O)N1/C(=C/c2ccc(-c3ccc(F)cc3)cc2)C(=O)c2ccccc21` gave an MIC90 [1] of 1.26 µM (≈ 0.45 µg/mL), an MIC99 [1] of 1.98 µM (≈ 0.708 µg/mL) and a CC50 [5] of 9 µM.
For `O=C(OC1CCCCC1)c1ccsc1NC(=O)[C@@H]1CCCN1`, the selectivity ratio [6] was 6.59, the selectivity ratio [7] was 27.9 and the selectivity ratio [8] was 33. It also gave a selectivity ratio [9] of 5.57, a GI50 (HeLa) of 92.8 µg/mL (≈ 288 µM) and an MIC [10] of 24.6 µg/mL (≈ 76.4 µM). It also gave a selectivity ratio [11] of 3.76, a GI50 (MCF7) of 162 µg/mL (≈ 504 µM) and a GI50 [12] of 137 µg/mL (≈ 426 µM). It also gave an MIC [13] of 4.92 µg/mL (≈ 15.3 µM) and a selectivity ratio [14] of 18.9.
With `Sc1nnc(-c2cc3ccccc3o2)o1` the MIC [1] was 1.3 µg/mL (≈ 5.96 µM), the IC50 [2] was 34.4 µg/mL (≈ 158 µM) and the selectivity ratio [3] was 26.4.
Molecule `CC[C@@H](CO)NCCN[C@@H](CC)CO` [ETHAMBUTOL] has an MIC [4] of 0.78 µg/mL (≈ 3.82 µM).
